Target: Transcription factor p65 (Human, UniProt Q04206)
Assay: Inhibition of TNF alpha stimulated NF-KappaB p65 in human HeLa nuclear extract assessed as decrease in NF-KappaB translocation to nucleus measured after 5 hrs by ELISA

Chain of Transcription factor p65 (Q04206 whole entry): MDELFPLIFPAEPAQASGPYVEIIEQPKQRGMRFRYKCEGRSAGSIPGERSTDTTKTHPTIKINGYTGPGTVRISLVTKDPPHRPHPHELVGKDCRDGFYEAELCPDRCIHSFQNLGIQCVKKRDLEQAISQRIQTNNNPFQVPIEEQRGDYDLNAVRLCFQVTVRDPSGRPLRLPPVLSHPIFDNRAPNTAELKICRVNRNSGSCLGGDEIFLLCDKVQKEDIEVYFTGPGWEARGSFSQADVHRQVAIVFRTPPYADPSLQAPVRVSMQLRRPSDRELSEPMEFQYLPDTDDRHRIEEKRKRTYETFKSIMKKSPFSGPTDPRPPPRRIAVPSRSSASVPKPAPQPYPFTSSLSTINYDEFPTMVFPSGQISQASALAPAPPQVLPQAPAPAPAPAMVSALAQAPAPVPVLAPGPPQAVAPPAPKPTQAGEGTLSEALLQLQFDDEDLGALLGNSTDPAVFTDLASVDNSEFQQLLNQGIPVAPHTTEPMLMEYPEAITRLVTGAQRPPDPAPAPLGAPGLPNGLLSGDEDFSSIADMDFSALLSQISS

## C[C@H]1O[C@@H](O[C@H]2CC[C@]3(C)[C@H]4CC[C@]5(C)[C@@H](C6=CC(=O)OC6)CC[C@]5(O)[C@@H]4CC[C@]3(O)C2)C[C@H](O)[C@@H]1O[C@@H]1O[C@H](CO)[C@@H](O)[C@H](O)[C@H]1O
  IC50: 4.3 µM

From BindingDB's records for doi:10.1021/acs.jnatprod.9b00140 (University of Illinois At Chicago, 2019)
